Test results taken from US10227610B2, “Methods and compositions for enhancing nuclease-mediated gene disruption” (SANGAMO THERAPEUTICS, INC., priority 2013, dated 2019).

What was measured:
CHO K1 cells = test: Targeted integration of double stranded donor at glutamine synthetase (GS) locus, RFLP; assay type: cell-based
Protocol: The use of DNA PKcs inhibitors during insertion of a double stranded donor in CHO K1 cells was also tested. For this experiment, a donor that was delivered either via a plasmid (FIG. 4E) or via a PCR fragment (FIG. 4F). Briefly, CHO K1 cells were transfected with Nucleofector Kit V on an Amaxa® instrument. The transfection components and their dosages were as follows: one million CHO K1 cells suspended in 100 μl of Nucleofection™ Solution V; 4 μg each of two in vitro transcribed ZFN mRNAs engineered for inducing DSBs at the glutamine synthetase locus (GS) in CHO cells (see, e.g., U.S. Pat. No. 8,153,399); 2 μg (FIG. 4E) or 4 μg (FIG. 4F) of in vitro transcribed CHO or human Rad52 mRNA; 10 μg of plasmid donor (3.8 kb) or PCR fragment donor (1.1 kb). The plasmid donor and the PCR fragment donor both carried the same target integration sequence, containing two 500 bp homologous arms, two loxP sites, and a multiple cloning site.
DNA-PKcs inhibitor NU7026 or NU7441 was added into 2 ml per well of pre-warmed culture medium in a 6-well plate at concentration of 20 μM or 16 respectively, before transfected cells were added into the medium. Cells were grown in the inhibitor-containing medium for 24 hours at 37° C. and 5% CO2. The medium was then replaced with fresh medium without inhibitor. DMSO was used as inhibitor blank control. […]

K562 cells [1] = test: Targeted integration of AAVS1 oligo with double-stranded cleaving or nickase ZFNs, HindIII digestion; assay type: cell-based, human; conditions: NU1025 for 24 hr or 48 hr
Protocol: In another experiment, K562 cells were treated with the PARP1 inhibitor NU1025. Briefly, two million K562 cells were nucleofected with 5 μg of double-stranded cleaving or nickase ZFNs specific for AAVS1 (U.S. Pat. No. 8,110,379) with or without 3 μl of an antisense AAVS1 oligo (100 μM). The cells were immediately treated with PARP inhibitor NU1025 after nucleofection for 24 hr or 48 hr. All cells were harvested 48 hr after nucleofection. 1.0 μg of PCR DNA was subjected to HindIII digestion.

Hepa 1-6 cells = test: Mutagenic repair (% indels) after albumin-specific ZFN, Surveyor/CelI assay and clone sequencing; assay type: cell-based
Protocol: In particular, the inhibitors Olaparib (PARP1-inhibitor) and NU7441 (DNA-PKcs inhibitor) were added 3 hours after mRNA delivery at concentration of 5 μM and 3-5 μM respectively. As a control, the ATM inhibitor KU55933 was added at a concentration of 10 μM (ATM has no direct role in DSB repair but is related to DNA-PKcs). After 15 hours, fresh inhibitors were added to the medium to counteract the decay of the inhibitors in the cell culture medium.
After a further 54 hours, cells were harvested and genomic DNA was prepared for Day 3 analysis by Surveyor™/CelI assay and DNA sequencing. For DNA sequencing the genomic target region of the ZFN was amplified by PCR, topo-cloned and 96 individual clones were sequenced. The sequences were analyzed and the results used to divide the clones into groups by the genome type (e.g. wild type genomes, those with insertions and/or deletions, and those with other modifications). At Day 3 harvest about a third of the cells were re-seeded in fresh medium without inhibitors and were grown until day 10 when they were harvested and analyzed by Surveyor™/CelI assay.

K562 cells [2] = test: ZFN-mediated targeted integration of ssOligo at CCR5 locus, RFLP assay and 96 colony sequencing; assay type: cell-based, human; conditions: Day 3; for effect on targeted integration: KU55933 10 μM, Olaparib 5 μM added to DNA-PKcs inhibitor
Protocol: K562 cells were transfected by Amaxa® electroporation system with plasmid DNA encoding a CCR5-specific ZFN pair (see, U.S. Pat. No. 7,951,925) and a single-stranded oligonucleotide (ssOligo) (120 bp) which has homology to the target region and harbors a unique restriction site (Avr II). The cells then were treated twice with small molecule inhibitors described in Example 1 (outlined in FIG. 2A). In particular, the inhibitors Olaparib (PARP1/2-inhibitor) and NU7441 (DNA-PKcs-inhibitor) were added 5 hours after the ZFN-encoding DNA delivery at concentration of 5 μM and 3 μM, respectively. As a control, the ATM inhibitor KU55933 was added at a concentration of 10 μM. After 15 hours, fresh inhibitors were added to the medium to counteract the decay of the inhibitors in the cell culture medium. After a further 54 hours, the cells were harvested and genomic DNA was prepared for Day 3 analysis by Surveyor™/CelI assay, RFLP analysis and DNA sequencing.
The RFLP assay was carried out by digestion of the PCR amplified target locus with a restriction enzyme cutting in the integrated ssOligo. For DNA sequencing, the genomic target region of the ZFN was amplified by PCR, topo-cloned and 96 individual clones were sequenced.

K562 cells [3] = test: TALEN-mediated targeted integration at human CCR5 locus, deep sequencing; assay type: cell-based
Protocol: See, e.g., U.S. Pat. No. 8,586,526. K562 cells were transfected by AMAXA with plasmid DNA encoding either hCCR5 TALENs or ZFNs and then the cells were treated with DMSO or DNA-PKcs inhibitor NU7441. Cells were harvested at Day 3 and Day 10 and genomic PCR was analyzed after PCR by deep sequencing.

HEK293 cells = test: Targeted integration of ssDNA oligo donor at AAVS1 locus, RFLP; assay type: cell-based, human; conditions: NU7441 10 μM
Protocol: We next used the inhibitors to measure their effect on targeted integration of single-stranded donors. Briefly, HEK293 and MCF7 cells were transfected with Nucleofector Kit V and MCF10A cells were transfected with Nuleofector™ Kit L on an Amaxa® instrument. The transfection components and their dosages were as follows: 0.8 million cells suspended in 100 μL of nucleofection solution; 3 μg each of two in vitro transcribed ZFN mRNAs engineered for inducing DSBs at the AAVS1 locus in human cells (see, e.g., U.S. Pat. No. 8,110,379); 0.3 nmol of a 100-nt ssDNAoligo donor. The oligo donor carried a HindIII restriction site at the position of 20 bp upstream of the ZFN cleavage site, and the HindIII site was used as marker for target integration analysis by RFLP. DNA-PKcs inhibitor NU7441 was added into 2 ml per well of pre-warmed culture medium in a 6-well plate at concentration of 10 μM for HEK293 and MCF7, and 15 or 20 μM for MCF10A before transfected cells were added into the medium. Cells were grown in the inhibitor-containing medium for 24 hours at 37° C. and 5% CO2. The medium was then replaced with fresh medium without inhibitor. DMSO was used as inhibitor blank control. For genomic DNA preparation, HEK293 and MCF10A cells were harvested 3 days after transfection, and MCF7 cells were harvested 5 days after nucleofection. […]

CD34+ cells = test: Targeted integration of ssOligo at CCR5 in primary cells, clone sequencing; assay type: cell-based; conditions: NU7441 3 μM, Day 3; at the expense of 5-nucleotide duplications and deletions
Protocol: Specifically, donor derived CD34+ cells were transfected 3 days after culture in medium suppressing differentiation. This was carried out by the BTX electroporation system with mRNA DNA encoding a CCR5-specific ZFN pair and a ssOligonucleotide (120 bp) which has homology to the target region and harbors a unique restriction site (Avr II). The cells were then treated twice with small molecule inhibitors as described in Example 1. In particular, the inhibitor NU7441 (DNA-PKcs-inhibitor) was added 3 hours after mRNA delivery at a concentration of 3 μM. After 15 hours, fresh inhibitors were added to the medium to counteract the decay of the inhibitors in the cell culture medium. After a further 54 hours, cells were harvested and genomic DNA was prepared for Day 3 analysis by DNA sequencing. For DNA sequencing the genomic target region of the ZFN was amplified by PCR, topo-cloned, and 96 individual clones were sequenced.

K562 cells [4] = test: Nickase ZFN with ssOligo at CCR5, Surveyor/CelI assay and sequencing; assay type: cell-based, human
Text: K562 cells were transfected by Amaxa electroporation system with plasmid DNA encoding a CCR5-specific ZFN pair (see, U.S. Pat. No. 7,951,925) and a single-stranded oligonucleotide (ssOligo) (120 bp) which has homology to the target region and harbors a unique restriction site (Avr II). […] Due to the less deleterious nature of this kind of DNA damage, recombination events mediated by ssDNA breaks may be preferable over DSBs. However, the frequency of gene modification mediated via ssDNA breaks is very low. DNA-PKcs and PARP inhibitors were used in an attempt to increase the frequency of gene modification mediated via ssDNA breaks (“nicks”).
Briefly, the transfected K562 cells were treated twice with either PARP1/2 inhibitor (Olaparib-5 μM) or DNA-PKcs inhibitor (NU7441-3 μM) 5 hours and 15 hours after transfection to counteract the decay of the inhibitors in the cell culture medium. After a further 54 hours, cells were harvested and genomic DNA was prepared for Day 3 analysis by Surveyor™/CelI assay, RFLP analysis and DNA sequencing as described in Example 1. The RFLP assay was carried out by digestion of the PCR amplified target locus with a restriction enzyme cutting in the integrated ssOligo. For DNA sequencing, the genomic target region of the ZFN was amplified by PCR, topo-cloned, and 96 individual clones were sequenced.

## O=c1cc(N2CCOCC2)oc2c1ccc1ccccc12 [NU7026]
CHO K1 cells; NU7026 alone, 20 μM
  plasmid donor-based target integration: no apparent increase

## Cc1nc2c(O)cccc2c(=O)[nH]1 [NU1025]
K562 cells [1]
  integration of AAVS1 oligo: detectable integration

## O=c1cc(-c2cccc3c2Sc2ccccc2S3)oc(N2CCOCC2)c1 [KU55933]
Hepa 1-6 cells; KU55933 10 μM control
  effect on mutagenic repair: slight decrease
K562 cells [2]
  effect on targeted integration: no effect

## O=c1cc(N2CCOCC2)oc2c(-c3cccc4c3sc3ccccc34)cccc12 [NU7441]
Hepa 1-6 cells; Day 10, after withdrawal of inhibitors
  increase of mutagenic repair: about 2 fold
K562 cells [2]; NU7441 3 μM, RFLP and 96 colony sequencing
  increase of targeted integration: 2-3 fold
CHO K1 cells; PCR fragment donor
  increase of PCR fragment donor-based target integration: about 5 fold
K562 cells [3]; Day 3, vs DMSO
  TALEN-mediated targeted integration: up to two fold
K562 cells [3]; TALENs, after NU7441 treatment
  share of all genome editing events that are targeted integrations: more than half
  unwanted mutagenic events (Indels): drastically reduced
HEK293 cells
  targeted integration of a single stranded donor: increased
CD34+ cells
  targeted integration: slight increase
K562 cells [4]; Nickase ZFNs co-transfected with ssOligo, NU7441 3 μM, Olaparib 5 μM
  CelI signal (indels): 7%
K562 cells [4]; sequencing of 96 clones
  clones with non-WT sequence (perfect targeted integration of the ssOligo): one of 96

## O=C(c1cc(Cc2n[nH]c(=O)c3ccccc23)ccc1F)N1CCN(C(=O)C2CC2)CC1 [Olaparib]
K562 cells [2]
  effect on targeted integration: did not further increase
